The values below come from paper PMC7324353 (European Journal of Medicinal Chemistry, 2020).

For data set [1], the system named is CD1 male mice. Kind of data set: Liver histology and immunohistochemistry. The class given is in vivo, mouse. The following applies: for H&E-stained liver sections / apoptotic nuclei (TUNEL) / hepatic tight junctions (ZO-1 staining): 600 mg/kg; for H&E-stained liver sections: CD1 mice.
A further data set deals with CD1 mice. Kind of data set: NAPQI detection in serum by LC-MS/MS. The class given is in vivo, mouse. The following applies: 600 mg/kg, ip or po.
The subject of data set [2] is CD1 male mice. Kind of data set: In vivo liver function tests and serum creatinine. Set-up: species or system mouse. Particulars: 600 mg/kg; for liver function tests (ALT, AST, ALP) in serum: serum after 12 h.
A further data set deals with male Sprague-Dawley rats. Kind of data set: Von Frey. The class given is in vivo, rat. The following applies: baseline dropped to about 20 after CFA.
The subject of data set [3] is male CD1 mice. The data set can be described thus: Baker's yeast-induced hyperthermia. The class given is in vivo, mouse. The following applies: 80 mg/kg po, n = 10, 2 h after drug (6-h time point).
The subject of data set [4] is primary human hepatocytes (PHH). The data set can be described thus: Reduced glutathione. The following applies: 500 or 1000 μM, 3 h, 6 h, 12 h. The class given is cell-based.
The test system is the same in data set [5]. The data set can be described thus: LDH release in primary human hepatocytes. Particulars: 500 or 1000 μM, 3 h, 6 h, 12 h, in comparison to ApAP.
For data set [6], the system named is male CD1 mice. The following applies: 600 mg/kg, n = 20 mice per group.
The next data set has as its system HepaRG. The following applies: HepaRG, 50, 100, 1000 and 5000 μM, 6 h, 12 h, 24 h.
The conditions of data set [7]: cited from earlier work.
The target in a further data set is CYP2D6 (Homo sapiens, UniProt P10635). Kind of data set: Vivid CYP450 screening assay, CYP2D6. The class given is biochemical.
Another data set addresses CYP3A4 (Homo sapiens, UniProt P08684). The following applies: titration curves for 2D6 and 3A4; isozyme not given.

Entries after “also recorded” stand apart in the source; their conditions may differ.

Sequence of CYP2D6 (P10635 whole entry): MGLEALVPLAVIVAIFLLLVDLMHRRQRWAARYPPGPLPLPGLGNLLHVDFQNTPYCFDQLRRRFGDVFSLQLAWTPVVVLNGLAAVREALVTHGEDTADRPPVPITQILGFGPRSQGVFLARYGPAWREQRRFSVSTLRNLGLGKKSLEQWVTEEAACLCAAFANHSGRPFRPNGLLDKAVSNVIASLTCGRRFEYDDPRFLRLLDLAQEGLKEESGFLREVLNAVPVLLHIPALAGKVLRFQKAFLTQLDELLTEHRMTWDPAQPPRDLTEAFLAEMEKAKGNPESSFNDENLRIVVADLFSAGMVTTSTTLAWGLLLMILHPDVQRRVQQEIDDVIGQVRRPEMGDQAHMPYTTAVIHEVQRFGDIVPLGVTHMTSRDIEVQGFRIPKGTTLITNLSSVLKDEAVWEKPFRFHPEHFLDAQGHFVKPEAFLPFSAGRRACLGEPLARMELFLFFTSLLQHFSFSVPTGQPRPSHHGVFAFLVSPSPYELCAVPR
Sequence of CYP3A4 (P08684 whole entry): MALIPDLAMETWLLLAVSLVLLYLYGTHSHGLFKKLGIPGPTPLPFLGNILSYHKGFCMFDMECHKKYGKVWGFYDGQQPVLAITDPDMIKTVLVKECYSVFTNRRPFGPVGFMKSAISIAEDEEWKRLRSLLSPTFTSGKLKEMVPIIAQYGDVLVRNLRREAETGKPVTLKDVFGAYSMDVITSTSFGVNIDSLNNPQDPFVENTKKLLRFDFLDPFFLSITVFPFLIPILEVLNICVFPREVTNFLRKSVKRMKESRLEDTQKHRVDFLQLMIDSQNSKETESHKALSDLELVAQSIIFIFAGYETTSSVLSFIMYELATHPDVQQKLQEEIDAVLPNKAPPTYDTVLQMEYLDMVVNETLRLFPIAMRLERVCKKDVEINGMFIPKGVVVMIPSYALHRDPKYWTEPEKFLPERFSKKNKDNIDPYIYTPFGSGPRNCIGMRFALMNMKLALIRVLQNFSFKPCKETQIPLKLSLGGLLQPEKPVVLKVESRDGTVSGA

`CC(=O)Nc1ccc(O)cc1` [ApAP, N-Acetyl-4-aminophenol, reference compound]: the “H&E-stained liver sections” value with CD1 male mice [1] is “centrilobular hepatic hemorrhagic necrosis”. For the same compound, in the data set on CD1 male mice [1] (mice), the “apoptotic nuclei (TUNEL)” value is “A large number of apoptotic nuclei” and the “hepatic tight junctions (ZO-1 staining)” value is “Loss of hepatic tight junctions”. In addition, the “nitrotyrosine in liver (marker of mitochondrial free radical formation)” value with CD1 male mice [1] (toxic dose, mice) is reported as “large amounts of nitrotyrosine”. Further, the “NAPQI generation in serum” value in the data set with CD1 mice is reported as “detected NAPQI generation”. In the data set with CD1 male mice [2], the “serum creatinine (renal function)” value is “moderately elevated; also recorded: significantly high” and the “liver function tests (ALT, AST, ALP) in serum” value (“liver function tests” below) is “Increased levels; also recorded: significantly high”. Further, the “latency for withdrawal of the CFA-injected left hind foot” value (from here on “latency for withdrawal”) with male Sprague-Dawley rats was “increased”. Besides, the antipyretic effect entry in the data set with male CD1 mice [3] is listed as “effectively reduced fever”.
As to `CNC(=O)c1ccccc1S(=O)(=O)NCC(=O)Nc1ccc(O)cc1` [3b, 2-[[2-(4-Hydroxyanilino)-2-oxo-ethyl]sulfamoyl]-N-methylbenzamide], the “amount of reduced GSH” value in data set [4] is recorded as “consistently increased”. Besides, the “H&E-stained liver sections” value in the data set on CD1 male mice [1] is listed as “healthy liver architecture was maintained”. Further, in the data set with CD1 male mice [1] (mice), the “apoptotic nuclei (TUNEL)” value was “but not in 3b and 3r”; the “hepatic tight junctions (ZO-1 staining)” value is recorded as “preserved”. The “NAPQI generation in serum” value in the data set with CD1 mice is given as “did not result in the formation of NAPQI”. Besides, the LDH release result in data set [5] is reported as “consistently decreased”. Further, the “mice alive after 48 h” value in the data set with male CD1 mice [6] is reported as 20 mice. In addition, the “liver function tests” value with CD1 male mice [2] is reported as “marked reduction in LFTs”. The “hepatotoxicity (LDH release, reduced GSH), dose and time-dependent effect” value in the data set on HepaRG was “lack of hepatotoxicity”. In the data set on male Sprague-Dawley rats, the “latency for withdrawal” value was “increased”.
For `O=C(CN1C(=O)c2ccccc2S1(=O)=O)Nc1ccc(O)cc1` [compound 1, N-(4-hydroxyphenyl)-2-(1,1,3-trioxo-1,2-benzothiazol-2-yl)acetamide], in [7] (compared with ApAP), the hepatotoxicity entry is listed as “considerably decreased” and the “in vivo analgesic profile” value was “maintained the in vivo analgesic profile of ApAP”. In addition, the in vivo metabolism entry in data set [7] (into the main metabolite 2) is “quickly metabolized in vivo”. The antipyresis result in data set [7] (stated in abstract, no reference given) is listed as “not antipyretic”.
As to `O=C(CNS(=O)(=O)c1ccccc1C(=O)NCCc1ccc(O)c(O)c1)Nc1ccc(O)cc1` [3r, N-[2-(3,4-dihydroxyphenil)ethyl]-2-[[2-(4-hydroxyanilino)-2-oxo-ethyl]sulfamoyl] benzamide], the “inhibitory effects on CYP2D6” value at CYP2D6 is recorded as “only marginal inhibitory effects”. In data set [4], the “amount of reduced GSH” value is “consistently increased”. Besides, in the data set with CD1 male mice [1], the “H&E-stained liver sections” value is “healthy liver architecture was maintained”. Also, in the data set on CD1 male mice [1] (mice), the “apoptotic nuclei (TUNEL)” value is “but not in 3b and 3r”; the “hepatic tight junctions (ZO-1 staining)” value is listed as “preserved”. Also, in the data set on CD1 mice, the “NAPQI generation in serum” value is listed as “did not result in the formation of NAPQI”. For the same compound, the LDH release entry in data set [5] is recorded as “consistently decreased”. Further, in the data set with male CD1 mice [6], the “mice alive after 48 h” value stood at 20 mice. Besides, in the data set on CD1 male mice [2], the “liver function tests” value is “marked reduction in LFTs”. Also, in the data set with HepaRG, the “hepatotoxicity (LDH release, reduced GSH), dose and time-dependent effect” value was “lack of hepatotoxicity”. In addition, the “latency for withdrawal” value in the data set on male Sprague-Dawley rats is recorded as “increased”. In addition, the “concentrations at which inhibition is noted” value at CYP3A4 is recorded as greater than 1000 nM.
